According to article PMC6576746, “Rational discovery of dual-indication multi-target PDE/Kinase inhibitor for precision anti-cancer therapy using structural systems pharmacology” (PLoS Computational Biology, 2019):

Legend:
Experiment in all cases: biochemical
Set-up in all cases: DiscoverX KinomeScan competition binding assay across human kinases; per cent of control at 10 and 100 uM
AKT3 = AKT3 (Homo sapiens, UniProt Q9Y243); details: competition binding, % of control
In short: (§1)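 Binding is expressed as %control, normalised between positive and negative control signals. The compound (levosimendan) was tested at 10 μM and 100 μM in the DiscoverX KinomeScan competition binding format against human kinases.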

AMPK-alpha1 = target: T1, AMPK-alpha1 (Homo sapiens, UniProt Q13131); details: competition binding, % of control; read-out: Percent Control (100 uM Levosimendan)
T1 construct: gene PRKAA1
In short: as §1

DCAMKL2 = target: T2, DCAMKL2 (Homo sapiens, UniProt Q8N568); details: competition binding, % of control; read-out: Percent Control (100 uM Levosimendan)
T2 construct: gene DCLK2
In short: as §1

EGFR(G719C) = EGFR(G719C) (Homo sapiens, UniProt P00533, G719C); details: competition binding, % of control
In short: as §1

[1] = target: EGFR(L747-S752del, P753S) (Homo sapiens, UniProt P00533, DEL747-752/P753S); details: competition binding, % of control; read-out: Percent Control (100 uM Levosimendan)
In short: as §1

FLT1 = FLT1 (Homo sapiens, UniProt P17948); details: competition binding, % of control
In short: as §1

GSK3A = GSK3A (Homo sapiens, UniProt P49840); details: competition binding, % of control; read-out: Percent Control (100 uM Levosimendan)
In short: as §1

MAP3K3 = MAP3K3 (Homo sapiens, UniProt Q99759); details: competition binding, % of control; read-out: Percent Control (100 uM Levosimendan)
In short: as §1

MLCK = target: T3, MLCK (Homo sapiens, UniProt Q32MK0); details: competition binding, % of control; read-out: Percent Control (100 uM Levosimendan)
T3 construct: gene MYLK3
In short: as §1

MTOR = MTOR (Homo sapiens, UniProt P42345); details: competition binding, % of control; read-out: Percent Control (100 uM Levosimendan)
In short: as §1

NEK7 = NEK7 (Homo sapiens, UniProt Q8TDX7); details: competition binding, % of control; read-out: Percent Control (100 uM Levosimendan)
In short: as §1

PIK3CA(E542K) = PIK3CA(E542K) (Homo sapiens, UniProt P42336, E542K); details: competition binding, % of control; read-out: Percent Control (100 uM Levosimendan)
In short: as §1

PIK3CA(H1047L) = PIK3CA(H1047L) (Homo sapiens, UniProt P42336, H1047L); details: competition binding, % of control; read-out: Percent Control (100 uM Levosimendan)
In short: as §1

PIK3CD = PIK3CD (Homo sapiens, UniProt O00329); details: competition binding, % of control; read-out: Percent Control (100 uM Levosimendan)
In short: as §1

VEGFR2 = target: T4, VEGFR2 (Homo sapiens, UniProt P35968); details: competition binding, % of control; read-out: Percent Control (100 uM Levosimendan)
T4 construct: gene KDR
In short: as §1

YANK1 = target: T5, YANK1 (Homo sapiens, UniProt Q8WU08); details: competition binding, % of control; read-out: Percent Control (100 uM Levosimendan)
T5 construct: gene STK32A
In short: as §1

YES = target: T6, YES (Homo sapiens, UniProt P07947); details: competition binding, % of control
T6 construct: gene YES1
In short: as §1

p38-delta = target: T7, p38-delta (Homo sapiens, UniProt O15264); details: competition binding, % of control; read-out: Percent Control (100 uM Levosimendan)
T7 construct: gene MAPK13
In short: as §1

[2] = read-out: Percent Control (10 uM Levosimendan)
[3] = read-out: Percent Control (100 uM Levosimendan)

Sequence of AKT3 (Q9Y243 whole entry): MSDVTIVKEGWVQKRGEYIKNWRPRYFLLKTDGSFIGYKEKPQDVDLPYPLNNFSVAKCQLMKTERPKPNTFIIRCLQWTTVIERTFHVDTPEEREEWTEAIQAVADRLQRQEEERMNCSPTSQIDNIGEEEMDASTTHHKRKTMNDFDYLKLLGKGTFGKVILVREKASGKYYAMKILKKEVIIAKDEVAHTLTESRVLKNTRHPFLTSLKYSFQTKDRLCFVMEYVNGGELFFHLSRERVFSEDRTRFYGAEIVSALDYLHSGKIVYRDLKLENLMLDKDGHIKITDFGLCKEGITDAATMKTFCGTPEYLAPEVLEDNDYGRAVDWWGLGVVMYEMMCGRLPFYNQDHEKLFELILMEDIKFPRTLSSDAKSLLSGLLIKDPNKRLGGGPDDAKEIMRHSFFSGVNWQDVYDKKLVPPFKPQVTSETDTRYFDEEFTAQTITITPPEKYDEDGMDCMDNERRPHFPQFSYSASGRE
Sequence of EGFR(G719C) (P00533 whole entry G719C): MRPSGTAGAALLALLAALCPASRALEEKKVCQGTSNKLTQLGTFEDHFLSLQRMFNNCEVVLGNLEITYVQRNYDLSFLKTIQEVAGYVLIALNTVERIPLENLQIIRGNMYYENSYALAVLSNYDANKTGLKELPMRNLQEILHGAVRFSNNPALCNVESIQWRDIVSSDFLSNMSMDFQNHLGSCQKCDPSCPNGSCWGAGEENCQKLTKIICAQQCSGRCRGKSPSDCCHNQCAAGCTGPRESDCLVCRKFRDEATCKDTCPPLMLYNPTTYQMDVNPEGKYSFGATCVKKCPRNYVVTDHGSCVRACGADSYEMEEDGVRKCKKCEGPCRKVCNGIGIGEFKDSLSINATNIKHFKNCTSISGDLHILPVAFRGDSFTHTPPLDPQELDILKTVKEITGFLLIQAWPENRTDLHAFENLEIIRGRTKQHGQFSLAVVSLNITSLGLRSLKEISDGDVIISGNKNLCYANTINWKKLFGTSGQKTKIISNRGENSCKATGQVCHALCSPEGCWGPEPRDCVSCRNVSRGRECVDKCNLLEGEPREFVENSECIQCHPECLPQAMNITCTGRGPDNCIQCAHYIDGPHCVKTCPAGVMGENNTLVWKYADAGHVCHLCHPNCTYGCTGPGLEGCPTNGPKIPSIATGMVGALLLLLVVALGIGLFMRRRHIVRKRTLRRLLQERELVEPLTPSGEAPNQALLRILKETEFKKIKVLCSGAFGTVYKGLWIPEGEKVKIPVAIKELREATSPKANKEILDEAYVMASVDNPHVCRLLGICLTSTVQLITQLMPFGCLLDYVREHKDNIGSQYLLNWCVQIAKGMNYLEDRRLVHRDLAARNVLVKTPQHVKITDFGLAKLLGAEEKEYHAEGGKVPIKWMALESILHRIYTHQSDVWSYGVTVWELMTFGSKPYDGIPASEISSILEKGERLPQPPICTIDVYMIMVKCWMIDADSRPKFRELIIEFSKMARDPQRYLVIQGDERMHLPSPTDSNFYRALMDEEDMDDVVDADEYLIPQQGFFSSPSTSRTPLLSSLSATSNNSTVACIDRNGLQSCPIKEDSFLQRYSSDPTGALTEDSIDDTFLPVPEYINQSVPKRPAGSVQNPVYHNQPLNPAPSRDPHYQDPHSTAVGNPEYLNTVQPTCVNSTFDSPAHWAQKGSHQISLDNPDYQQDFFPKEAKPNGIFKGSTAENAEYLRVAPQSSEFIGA
T6 sequence (P07947 whole entry): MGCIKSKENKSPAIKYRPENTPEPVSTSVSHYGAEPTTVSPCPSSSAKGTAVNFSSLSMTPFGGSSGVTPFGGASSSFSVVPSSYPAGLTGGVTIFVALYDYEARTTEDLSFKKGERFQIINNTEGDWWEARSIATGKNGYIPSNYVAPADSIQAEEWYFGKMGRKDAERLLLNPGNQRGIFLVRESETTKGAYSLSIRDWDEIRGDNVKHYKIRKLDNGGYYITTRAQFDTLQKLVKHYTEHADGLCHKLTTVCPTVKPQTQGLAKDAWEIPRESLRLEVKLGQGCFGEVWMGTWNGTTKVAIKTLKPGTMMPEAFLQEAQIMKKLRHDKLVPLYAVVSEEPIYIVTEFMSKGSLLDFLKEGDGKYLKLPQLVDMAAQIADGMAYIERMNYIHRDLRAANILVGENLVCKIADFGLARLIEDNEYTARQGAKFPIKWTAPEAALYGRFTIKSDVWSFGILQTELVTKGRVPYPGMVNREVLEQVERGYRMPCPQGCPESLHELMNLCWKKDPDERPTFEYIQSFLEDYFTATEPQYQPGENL
Sequence of FLT1 (P17948 whole entry): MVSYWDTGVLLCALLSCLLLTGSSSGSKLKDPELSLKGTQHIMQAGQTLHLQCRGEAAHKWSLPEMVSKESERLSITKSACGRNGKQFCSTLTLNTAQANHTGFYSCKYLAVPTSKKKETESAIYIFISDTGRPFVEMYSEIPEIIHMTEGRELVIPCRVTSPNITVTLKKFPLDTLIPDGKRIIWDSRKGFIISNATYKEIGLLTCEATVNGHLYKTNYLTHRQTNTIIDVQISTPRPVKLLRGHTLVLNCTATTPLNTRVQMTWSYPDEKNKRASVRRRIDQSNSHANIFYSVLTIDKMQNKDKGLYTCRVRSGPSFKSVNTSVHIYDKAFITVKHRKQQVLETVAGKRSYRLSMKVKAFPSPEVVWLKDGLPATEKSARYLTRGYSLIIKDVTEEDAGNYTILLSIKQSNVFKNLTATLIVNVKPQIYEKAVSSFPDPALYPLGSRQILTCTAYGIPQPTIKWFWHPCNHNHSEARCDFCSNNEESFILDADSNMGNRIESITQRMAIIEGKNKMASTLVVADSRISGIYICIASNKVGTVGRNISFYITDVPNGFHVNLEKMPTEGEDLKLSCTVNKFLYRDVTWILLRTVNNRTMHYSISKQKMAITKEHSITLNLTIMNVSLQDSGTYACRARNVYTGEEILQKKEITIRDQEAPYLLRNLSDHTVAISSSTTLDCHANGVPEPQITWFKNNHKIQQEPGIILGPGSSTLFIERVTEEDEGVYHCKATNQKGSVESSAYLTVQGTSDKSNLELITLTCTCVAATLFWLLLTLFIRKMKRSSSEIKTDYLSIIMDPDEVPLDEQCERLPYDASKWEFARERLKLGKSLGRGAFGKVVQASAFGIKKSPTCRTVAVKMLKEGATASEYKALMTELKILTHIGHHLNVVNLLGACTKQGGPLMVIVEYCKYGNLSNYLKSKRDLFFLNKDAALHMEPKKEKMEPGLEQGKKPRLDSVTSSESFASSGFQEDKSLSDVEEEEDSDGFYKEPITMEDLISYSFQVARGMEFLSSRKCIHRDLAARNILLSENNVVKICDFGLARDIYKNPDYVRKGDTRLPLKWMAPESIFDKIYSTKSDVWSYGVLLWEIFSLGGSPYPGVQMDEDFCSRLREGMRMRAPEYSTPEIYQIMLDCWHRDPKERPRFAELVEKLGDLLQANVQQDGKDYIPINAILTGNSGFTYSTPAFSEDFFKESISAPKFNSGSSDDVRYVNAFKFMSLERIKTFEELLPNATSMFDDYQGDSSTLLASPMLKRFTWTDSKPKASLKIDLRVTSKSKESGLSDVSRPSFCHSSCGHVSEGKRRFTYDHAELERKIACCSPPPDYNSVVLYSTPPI
Sequence of PIK3CA(E542K) (P42336 whole entry E542K): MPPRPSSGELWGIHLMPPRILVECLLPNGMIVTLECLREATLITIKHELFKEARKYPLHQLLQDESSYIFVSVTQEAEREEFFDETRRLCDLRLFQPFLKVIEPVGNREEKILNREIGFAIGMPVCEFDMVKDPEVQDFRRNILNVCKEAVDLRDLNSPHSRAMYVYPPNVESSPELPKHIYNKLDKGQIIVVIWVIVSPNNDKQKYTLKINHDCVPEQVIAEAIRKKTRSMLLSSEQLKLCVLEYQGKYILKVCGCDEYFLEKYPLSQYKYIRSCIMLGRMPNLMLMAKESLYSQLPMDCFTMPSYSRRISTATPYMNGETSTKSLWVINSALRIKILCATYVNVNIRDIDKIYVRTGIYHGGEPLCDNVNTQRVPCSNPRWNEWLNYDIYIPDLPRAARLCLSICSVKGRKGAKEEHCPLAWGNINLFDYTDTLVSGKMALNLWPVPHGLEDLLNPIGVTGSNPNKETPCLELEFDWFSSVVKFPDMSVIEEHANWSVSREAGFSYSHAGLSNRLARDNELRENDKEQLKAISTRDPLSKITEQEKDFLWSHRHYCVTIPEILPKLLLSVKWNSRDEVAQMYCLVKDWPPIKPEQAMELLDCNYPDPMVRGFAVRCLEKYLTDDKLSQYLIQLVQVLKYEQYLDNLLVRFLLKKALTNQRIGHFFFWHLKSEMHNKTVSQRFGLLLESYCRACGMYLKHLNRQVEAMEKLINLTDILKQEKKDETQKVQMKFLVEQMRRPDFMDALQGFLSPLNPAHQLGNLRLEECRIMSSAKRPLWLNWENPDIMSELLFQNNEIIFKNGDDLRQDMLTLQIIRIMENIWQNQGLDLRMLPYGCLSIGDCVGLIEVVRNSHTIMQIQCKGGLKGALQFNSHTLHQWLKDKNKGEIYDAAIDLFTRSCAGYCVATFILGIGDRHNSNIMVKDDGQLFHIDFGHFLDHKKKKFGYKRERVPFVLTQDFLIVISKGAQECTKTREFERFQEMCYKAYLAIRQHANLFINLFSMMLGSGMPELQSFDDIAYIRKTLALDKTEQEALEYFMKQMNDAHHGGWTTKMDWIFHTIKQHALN
T7 sequence (O15264 whole entry): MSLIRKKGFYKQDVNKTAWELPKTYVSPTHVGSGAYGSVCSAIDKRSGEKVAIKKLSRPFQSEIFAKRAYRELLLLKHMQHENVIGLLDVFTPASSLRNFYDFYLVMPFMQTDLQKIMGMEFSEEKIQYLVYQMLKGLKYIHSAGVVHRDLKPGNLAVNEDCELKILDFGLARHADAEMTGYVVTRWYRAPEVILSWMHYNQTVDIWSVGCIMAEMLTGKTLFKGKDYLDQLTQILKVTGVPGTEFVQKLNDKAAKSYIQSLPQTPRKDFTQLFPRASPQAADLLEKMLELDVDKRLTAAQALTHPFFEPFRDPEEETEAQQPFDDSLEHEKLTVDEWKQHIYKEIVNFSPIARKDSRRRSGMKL
Sequence of PIK3CA(H1047L) (P42336 whole entry H1047L): as the sequence (P42336 whole entry E542K) above, with K542E, H1047L counted along it

remaining binding at 10 µM (AKT3; [2]): 96%
remaining binding at 100 µM (AKT3; [3]): 37%
remaining binding at 100 µM (AMPK-alpha1): 83%
remaining binding at 100 µM (DCAMKL2): 100%
remaining binding at 10 µM (EGFR(G719C); [2]): 49%
remaining binding at 100 µM (EGFR(G719C); [3]): 10%
remaining binding at 100 µM [1]: 91%
remaining binding at 10 µM (FLT1; [2]): 98%
remaining binding at 100 µM (FLT1; [3]): 44%
remaining binding at 100 µM (GSK3A): 100%
remaining binding at 100 µM (MAP3K3): 66%
remaining binding at 100 µM (MLCK): 100%
remaining binding at 100 µM (MTOR): 100%
remaining binding at 100 µM (NEK7): 100%
remaining binding at 100 µM (PIK3CA(E542K)): 100%
remaining binding at 100 µM (PIK3CA(H1047L)): 100%
remaining binding at 100 µM (PIK3CD): 100%
remaining binding at 100 µM (VEGFR2): 100%
remaining binding at 100 µM (YANK1): 94%
remaining binding at 10 µM (YES; [2]): 97%
remaining binding at 100 µM (YES; [3]): 0%
remaining binding at 100 µM (p38-delta): 100%
Structure (SMILES): C[C@@H]1CC(=O)NN=C1c1ccc(NN=C(C#N)C#N)cc1 [levosimendan]
